Data on three compounds can be found in paper PMC2946430 (Biosensors & bioelectronics, 2010).

Experiment [1] deals with H1650 cells. Briefly: Clonogenic assay, parental H1650. The format is cell-based, human. As to conditions: parental H1650, continuous exposure 10 μM and 50 μM, 15 days.
Experiment [2] deals with erlotinib-resistant H1650 clones. Briefly: cells. As to conditions: Homo sapiens, NCI-H1650, 48 h, read-out: IC50, cell proliferation/viability.
Experiment [3] has as its system H1650 cells. Briefly: cells. As to conditions: Homo sapiens, NCI-H1650, 48 h, read-out: IC50, cell proliferation/viability.
Experiment [4] relates to phosphorylation of MAPK and Akt in H1650 cells. The experiment is described as follows: Western blot of MAPK and Akt phosphorylation, parental H1650. The format is cell-based, human. A general note: Immunoblotting shows a protein as a band on a membrane.
The subject of experiment [5] is EGFR kinase activity in H23 cell lysate (wild type EGFR). The experiment is described as follows: Hydrogel-based peptide array kinase assay, H23 cell lysate. It counts as biochemical, human. As to conditions: 0-50 μM, compared with H1650.
Experiment [6] deals with phosphorylation of MAPK and Akt in H1650-ER1, H1650-ER2 and H1650-ER4 cells. The experiment is described as follows: Western blot of MAPK and Akt phosphorylation, resistant clones. It counts as cell-based, human. As to conditions: for suppression of p-AKT and p-MAPK levels: resistant H1650-ER1 cells compared to parent H1650 cells.
The target in experiment [7] is EGFR kinase activity in H1650-ER1, H1650-ER2, H1650-ER4 cell lysates (Homo sapiens, UniProt P00533, DEL746-750).

Structures are written as SMILES. pIC50: −log10 of the molar value.

Consider `C#Cc1cccc(Nc2ncnc3cc(OCCOC)c(OCCOC)cc23)c1` [erlotinib], for which the colony formation result in experiment [1] is “very few colonies”. Moreover, the pIC50 in experiment [2] is less than 4.70; in experiment [3], approximately 5.62. Also, the MAPK phosphorylation result is on record as “attenuation in MAPK phosphorylation” in experiment [4] (parental H1650, 0, 1 and 10 μM for 5 hr, Western blot); “maintained” in experiment [6] (H1650-ER1, H1650-ER2, H1650-ER4, 0, 1 and 10 μM for 5 hr). Further, the Akt phosphorylation entry was “did not affect” in experiment [4] (parental H1650, Western blot) and “did not affect” in experiment [6] (resistant clones). The “effect on substrate phosphorylation by H23 lysate” value in experiment [5] is “much less effective”. Also, the “suppression of p-AKT and p-MAPK levels” value in experiment [6] is reported as “reduced efficacy”.

For `C[C@@H](Nc1ncnc2[nH]c(-c3ccc(O)cc3)cc12)c1ccccc1` [PKI-166], the pIC50 in experiment [7] was less than 5.00.

`CC#CC(=O)Nc1ccc2ncnc(Nc3cccc(Br)c3)c2c1` [CL-387,785]: in experiment [6], the “suppression of p-AKT and p-MAPK levels” value is “persistent activity”.
